In ChEMBL document CHEMBL5465560, “Selectivity Literature for EUbOPEN Chemogenomic Library” (2024):

Experiments:
[1] = target: T1, Homeodomain-interacting protein kinase 4 (Homo sapiens) (UniProt Q8NE63); assay: Selectivity interaction (KinomeScan (DiscoverX)) EUB0001049a HIPK4; settings: at 1 µM
T1 sequence (whole entry): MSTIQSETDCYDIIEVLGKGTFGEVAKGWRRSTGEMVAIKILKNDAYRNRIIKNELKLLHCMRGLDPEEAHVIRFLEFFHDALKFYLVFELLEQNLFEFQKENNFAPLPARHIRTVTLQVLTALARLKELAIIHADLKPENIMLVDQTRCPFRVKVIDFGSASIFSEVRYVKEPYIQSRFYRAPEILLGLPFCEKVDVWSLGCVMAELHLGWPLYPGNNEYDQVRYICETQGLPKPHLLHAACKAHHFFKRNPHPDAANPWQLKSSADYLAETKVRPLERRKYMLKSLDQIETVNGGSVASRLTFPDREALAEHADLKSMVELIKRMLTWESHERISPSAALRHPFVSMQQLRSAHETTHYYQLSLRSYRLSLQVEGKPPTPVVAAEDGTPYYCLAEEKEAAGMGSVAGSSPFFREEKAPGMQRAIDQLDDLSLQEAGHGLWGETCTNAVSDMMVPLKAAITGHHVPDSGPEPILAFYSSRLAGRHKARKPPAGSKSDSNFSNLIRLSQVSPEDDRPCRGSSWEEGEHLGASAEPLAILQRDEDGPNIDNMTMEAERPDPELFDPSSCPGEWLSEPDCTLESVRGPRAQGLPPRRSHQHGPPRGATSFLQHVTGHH

[2] = target: T2, Serine/threonine-protein kinase Nek1 (Homo sapiens) (UniProt Q96PY6); settings: at 10 µM
T2 sequence (whole entry): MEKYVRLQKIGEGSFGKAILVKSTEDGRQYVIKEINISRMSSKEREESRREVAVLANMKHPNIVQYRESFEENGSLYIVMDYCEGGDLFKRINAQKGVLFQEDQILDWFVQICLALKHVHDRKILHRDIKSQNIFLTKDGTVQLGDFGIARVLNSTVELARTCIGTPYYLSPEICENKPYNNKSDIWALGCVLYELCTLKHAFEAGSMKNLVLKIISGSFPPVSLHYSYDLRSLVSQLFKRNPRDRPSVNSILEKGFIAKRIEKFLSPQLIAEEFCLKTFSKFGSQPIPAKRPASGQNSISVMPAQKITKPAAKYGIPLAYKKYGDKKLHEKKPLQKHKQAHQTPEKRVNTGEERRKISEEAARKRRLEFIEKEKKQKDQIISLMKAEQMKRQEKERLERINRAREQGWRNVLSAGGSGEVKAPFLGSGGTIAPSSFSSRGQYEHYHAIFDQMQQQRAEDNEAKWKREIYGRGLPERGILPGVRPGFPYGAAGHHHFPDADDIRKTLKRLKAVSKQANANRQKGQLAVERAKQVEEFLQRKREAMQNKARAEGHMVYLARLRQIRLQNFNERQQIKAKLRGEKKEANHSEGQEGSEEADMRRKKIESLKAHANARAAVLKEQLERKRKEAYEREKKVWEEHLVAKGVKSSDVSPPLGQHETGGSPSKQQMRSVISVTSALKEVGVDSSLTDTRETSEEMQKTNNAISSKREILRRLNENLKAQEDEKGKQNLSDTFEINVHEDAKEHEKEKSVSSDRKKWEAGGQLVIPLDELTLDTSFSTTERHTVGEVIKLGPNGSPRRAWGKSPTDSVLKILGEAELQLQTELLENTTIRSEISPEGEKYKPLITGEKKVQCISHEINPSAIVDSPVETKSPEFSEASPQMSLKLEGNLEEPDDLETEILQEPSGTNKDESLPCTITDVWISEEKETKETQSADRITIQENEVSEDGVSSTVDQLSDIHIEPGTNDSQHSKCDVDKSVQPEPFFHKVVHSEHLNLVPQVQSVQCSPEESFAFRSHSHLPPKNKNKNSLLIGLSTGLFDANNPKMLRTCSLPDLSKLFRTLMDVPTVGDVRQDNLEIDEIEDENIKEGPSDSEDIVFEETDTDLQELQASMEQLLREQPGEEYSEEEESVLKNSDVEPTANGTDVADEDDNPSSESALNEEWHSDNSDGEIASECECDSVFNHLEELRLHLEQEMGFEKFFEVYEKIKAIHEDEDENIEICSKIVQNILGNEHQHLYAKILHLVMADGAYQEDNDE

[3] = target: T3, MAP kinase-activated protein kinase 5 (Homo sapiens) (UniProt Q8IW41); assay: Selectivity interaction (KinomeScan (DiscoverX)) EUB0000229b MAPKAPK5; settings: at 10 µM
T3 sequence (whole entry): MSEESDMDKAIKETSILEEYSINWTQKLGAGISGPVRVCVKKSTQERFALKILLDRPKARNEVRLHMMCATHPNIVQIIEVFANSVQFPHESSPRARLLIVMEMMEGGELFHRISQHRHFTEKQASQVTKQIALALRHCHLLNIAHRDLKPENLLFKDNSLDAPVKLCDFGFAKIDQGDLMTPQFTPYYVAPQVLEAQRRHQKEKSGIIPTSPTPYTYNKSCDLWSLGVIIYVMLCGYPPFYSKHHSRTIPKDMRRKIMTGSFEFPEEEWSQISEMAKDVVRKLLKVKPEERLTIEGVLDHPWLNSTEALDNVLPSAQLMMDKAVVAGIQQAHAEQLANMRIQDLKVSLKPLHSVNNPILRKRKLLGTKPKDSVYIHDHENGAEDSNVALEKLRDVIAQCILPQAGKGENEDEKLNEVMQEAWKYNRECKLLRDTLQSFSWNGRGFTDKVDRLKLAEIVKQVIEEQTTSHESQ

[4] = target: Serine/threonine-protein kinase Nek7 (Homo sapiens) (UniProt Q8TDX7); assay: Selectivity interaction (KinomeScan (DiscoverX)) EUB0000092b NEK7; settings: at 10 µM
Serine/threonine-protein kinase Nek7 (Homo sapiens), sequence (Q8TDX7 whole entry, looked up): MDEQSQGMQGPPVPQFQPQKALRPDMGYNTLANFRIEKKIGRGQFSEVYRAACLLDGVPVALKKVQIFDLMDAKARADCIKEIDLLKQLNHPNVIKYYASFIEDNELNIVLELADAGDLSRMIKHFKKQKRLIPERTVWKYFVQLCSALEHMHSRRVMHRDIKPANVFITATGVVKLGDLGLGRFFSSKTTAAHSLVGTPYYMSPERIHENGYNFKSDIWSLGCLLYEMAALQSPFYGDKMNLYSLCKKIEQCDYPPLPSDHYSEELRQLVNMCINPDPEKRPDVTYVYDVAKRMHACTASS

[5] = target: cAMP-dependent protein kinase catalytic subunit alpha (Homo sapiens, UniProt P17612); assay: Selectivity interaction (KinomeScan (DiscoverX)) EUB0000092b PRKACA; settings: at 10 µM
[6] = target: Leucine-rich repeat serine/threonine-protein kinase 2 (Homo sapiens, UniProt Q5S007); assay: (§1) Selectivity interaction (KinomeScan (DiscoverX)) EUB0000666a LRRK2; settings: at 10 µM
Leucine-rich repeat serine/threonine-protein kinase 2, sequence (Q5S007 whole entry): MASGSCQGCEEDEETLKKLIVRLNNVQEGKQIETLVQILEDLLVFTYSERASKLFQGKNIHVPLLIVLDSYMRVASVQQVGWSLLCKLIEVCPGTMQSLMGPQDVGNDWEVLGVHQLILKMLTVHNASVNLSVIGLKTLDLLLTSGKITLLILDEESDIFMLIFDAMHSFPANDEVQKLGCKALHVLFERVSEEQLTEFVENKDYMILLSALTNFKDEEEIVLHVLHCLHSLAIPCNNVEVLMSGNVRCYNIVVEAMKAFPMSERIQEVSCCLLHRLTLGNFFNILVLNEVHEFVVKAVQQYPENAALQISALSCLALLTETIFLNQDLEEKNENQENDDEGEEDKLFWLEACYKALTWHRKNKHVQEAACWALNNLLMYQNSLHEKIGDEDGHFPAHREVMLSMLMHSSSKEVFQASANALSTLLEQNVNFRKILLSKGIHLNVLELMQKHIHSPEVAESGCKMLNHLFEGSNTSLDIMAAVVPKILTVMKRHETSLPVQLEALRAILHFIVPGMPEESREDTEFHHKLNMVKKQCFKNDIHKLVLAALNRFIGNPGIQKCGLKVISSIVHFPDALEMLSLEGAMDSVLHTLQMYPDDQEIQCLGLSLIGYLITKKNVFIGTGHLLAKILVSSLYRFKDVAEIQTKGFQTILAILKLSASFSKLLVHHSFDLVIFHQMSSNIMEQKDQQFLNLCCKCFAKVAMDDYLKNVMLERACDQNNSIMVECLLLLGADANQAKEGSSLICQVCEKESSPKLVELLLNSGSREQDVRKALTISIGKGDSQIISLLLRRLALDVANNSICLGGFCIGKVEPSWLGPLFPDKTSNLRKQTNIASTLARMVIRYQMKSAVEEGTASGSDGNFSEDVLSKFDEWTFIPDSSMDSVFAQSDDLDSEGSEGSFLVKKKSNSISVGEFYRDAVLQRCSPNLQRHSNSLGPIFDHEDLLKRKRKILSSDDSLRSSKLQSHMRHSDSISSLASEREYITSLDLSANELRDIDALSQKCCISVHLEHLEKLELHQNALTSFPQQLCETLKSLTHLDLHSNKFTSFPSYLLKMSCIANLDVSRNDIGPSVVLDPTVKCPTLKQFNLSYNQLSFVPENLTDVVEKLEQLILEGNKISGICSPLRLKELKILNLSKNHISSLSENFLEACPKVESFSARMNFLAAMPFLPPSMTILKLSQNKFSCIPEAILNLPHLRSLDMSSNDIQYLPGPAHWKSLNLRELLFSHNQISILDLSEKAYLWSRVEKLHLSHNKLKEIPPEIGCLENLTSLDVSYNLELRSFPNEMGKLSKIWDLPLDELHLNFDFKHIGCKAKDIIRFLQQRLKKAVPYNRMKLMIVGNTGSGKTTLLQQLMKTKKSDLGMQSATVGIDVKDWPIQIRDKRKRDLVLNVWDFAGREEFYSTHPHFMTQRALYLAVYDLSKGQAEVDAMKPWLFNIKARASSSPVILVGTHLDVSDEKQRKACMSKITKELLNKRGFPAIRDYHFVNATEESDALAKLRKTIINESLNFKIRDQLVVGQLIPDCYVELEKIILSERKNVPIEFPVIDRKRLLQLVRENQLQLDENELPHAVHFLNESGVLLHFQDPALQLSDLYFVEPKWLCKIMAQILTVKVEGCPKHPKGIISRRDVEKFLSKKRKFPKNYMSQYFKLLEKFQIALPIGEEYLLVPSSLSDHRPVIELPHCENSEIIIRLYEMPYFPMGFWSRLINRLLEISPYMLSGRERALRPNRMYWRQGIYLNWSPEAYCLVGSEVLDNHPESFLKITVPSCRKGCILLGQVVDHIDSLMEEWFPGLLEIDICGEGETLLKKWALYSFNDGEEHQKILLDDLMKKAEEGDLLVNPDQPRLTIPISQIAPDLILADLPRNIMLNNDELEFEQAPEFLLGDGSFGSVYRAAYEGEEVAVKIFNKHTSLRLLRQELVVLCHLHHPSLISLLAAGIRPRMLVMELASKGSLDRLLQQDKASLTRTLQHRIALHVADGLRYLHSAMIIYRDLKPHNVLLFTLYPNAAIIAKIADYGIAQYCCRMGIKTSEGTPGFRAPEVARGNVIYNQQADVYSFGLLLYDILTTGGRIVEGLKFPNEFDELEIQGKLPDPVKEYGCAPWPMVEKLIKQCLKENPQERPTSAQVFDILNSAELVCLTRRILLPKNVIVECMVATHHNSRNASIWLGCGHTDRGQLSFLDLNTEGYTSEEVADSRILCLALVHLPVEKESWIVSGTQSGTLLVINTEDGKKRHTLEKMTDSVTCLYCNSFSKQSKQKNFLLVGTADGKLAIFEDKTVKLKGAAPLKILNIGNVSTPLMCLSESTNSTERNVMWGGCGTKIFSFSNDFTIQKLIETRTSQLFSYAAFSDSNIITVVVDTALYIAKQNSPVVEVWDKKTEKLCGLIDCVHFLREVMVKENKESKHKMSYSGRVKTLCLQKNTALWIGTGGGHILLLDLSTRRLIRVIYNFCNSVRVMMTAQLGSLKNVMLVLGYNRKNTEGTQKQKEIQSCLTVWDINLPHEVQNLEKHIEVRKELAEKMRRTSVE

[7] = system: Leucine-rich repeat serine/threonine-protein kinase 2 (Homo sapiens), Q5S007 [G2019S]; assay: as §1; settings: at 10 µM
Leucine-rich repeat serine/threonine-protein kinase 2 (Homo sapiens), Q5S007 [G2019S], sequence (Q5S007 whole entry G2019S): as the sequence (Q5S007 whole entry) above, with G2019S counted along it

[8] = target: Death-associated protein kinase 1 (Homo sapiens, UniProt P53355); assay: Selectivity interaction (KinomeScan (DiscoverX)) EUB0000666a DAPK1; settings: at 10 µM
Death-associated protein kinase 1, sequence (P53355 whole entry, looked up): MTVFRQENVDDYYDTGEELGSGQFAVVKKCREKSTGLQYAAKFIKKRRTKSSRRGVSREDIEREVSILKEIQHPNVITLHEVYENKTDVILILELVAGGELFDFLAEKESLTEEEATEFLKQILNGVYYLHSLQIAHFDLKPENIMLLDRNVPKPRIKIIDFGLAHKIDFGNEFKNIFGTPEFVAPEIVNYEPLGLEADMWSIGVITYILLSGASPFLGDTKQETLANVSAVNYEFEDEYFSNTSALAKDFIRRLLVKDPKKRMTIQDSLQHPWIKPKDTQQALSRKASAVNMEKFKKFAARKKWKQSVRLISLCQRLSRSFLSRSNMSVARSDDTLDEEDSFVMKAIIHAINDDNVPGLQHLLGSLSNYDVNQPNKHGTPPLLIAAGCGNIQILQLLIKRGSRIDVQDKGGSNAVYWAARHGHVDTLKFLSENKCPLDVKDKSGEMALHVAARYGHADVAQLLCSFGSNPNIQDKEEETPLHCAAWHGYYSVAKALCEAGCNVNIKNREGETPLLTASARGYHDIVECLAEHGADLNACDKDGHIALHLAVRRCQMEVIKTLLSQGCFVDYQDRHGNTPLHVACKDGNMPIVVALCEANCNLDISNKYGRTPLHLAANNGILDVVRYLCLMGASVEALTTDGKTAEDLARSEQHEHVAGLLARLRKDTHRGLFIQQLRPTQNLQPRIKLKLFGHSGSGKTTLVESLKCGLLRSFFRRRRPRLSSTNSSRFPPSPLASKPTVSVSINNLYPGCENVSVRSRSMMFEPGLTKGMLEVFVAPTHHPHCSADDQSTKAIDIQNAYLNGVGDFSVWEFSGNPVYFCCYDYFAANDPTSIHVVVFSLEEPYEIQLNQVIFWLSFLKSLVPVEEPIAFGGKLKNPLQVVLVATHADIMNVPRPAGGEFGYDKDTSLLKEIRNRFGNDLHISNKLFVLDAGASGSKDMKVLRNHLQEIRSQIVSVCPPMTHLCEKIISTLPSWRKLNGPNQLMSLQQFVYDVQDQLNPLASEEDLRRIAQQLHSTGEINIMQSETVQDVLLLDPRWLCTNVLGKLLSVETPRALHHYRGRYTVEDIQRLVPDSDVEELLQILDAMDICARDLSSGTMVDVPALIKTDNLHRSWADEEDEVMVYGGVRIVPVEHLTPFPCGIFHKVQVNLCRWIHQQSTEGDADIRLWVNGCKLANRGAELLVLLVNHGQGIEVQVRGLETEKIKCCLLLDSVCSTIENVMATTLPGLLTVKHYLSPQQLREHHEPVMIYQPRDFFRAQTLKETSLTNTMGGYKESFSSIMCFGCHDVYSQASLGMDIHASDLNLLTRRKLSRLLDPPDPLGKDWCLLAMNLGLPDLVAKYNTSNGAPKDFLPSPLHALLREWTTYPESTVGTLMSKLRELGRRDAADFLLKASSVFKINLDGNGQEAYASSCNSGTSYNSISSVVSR

[9] = target: Calcium/calmodulin-dependent protein kinase type II subunit beta (Homo sapiens) (UniProt Q13554); assay: Selectivity interaction (KinomeScan (DiscoverX)) EUB0000666a CAMK2B; settings: at 10 µM
Calcium/calmodulin-dependent protein kinase type II subunit beta (Homo sapiens), sequence (Q13554 whole entry): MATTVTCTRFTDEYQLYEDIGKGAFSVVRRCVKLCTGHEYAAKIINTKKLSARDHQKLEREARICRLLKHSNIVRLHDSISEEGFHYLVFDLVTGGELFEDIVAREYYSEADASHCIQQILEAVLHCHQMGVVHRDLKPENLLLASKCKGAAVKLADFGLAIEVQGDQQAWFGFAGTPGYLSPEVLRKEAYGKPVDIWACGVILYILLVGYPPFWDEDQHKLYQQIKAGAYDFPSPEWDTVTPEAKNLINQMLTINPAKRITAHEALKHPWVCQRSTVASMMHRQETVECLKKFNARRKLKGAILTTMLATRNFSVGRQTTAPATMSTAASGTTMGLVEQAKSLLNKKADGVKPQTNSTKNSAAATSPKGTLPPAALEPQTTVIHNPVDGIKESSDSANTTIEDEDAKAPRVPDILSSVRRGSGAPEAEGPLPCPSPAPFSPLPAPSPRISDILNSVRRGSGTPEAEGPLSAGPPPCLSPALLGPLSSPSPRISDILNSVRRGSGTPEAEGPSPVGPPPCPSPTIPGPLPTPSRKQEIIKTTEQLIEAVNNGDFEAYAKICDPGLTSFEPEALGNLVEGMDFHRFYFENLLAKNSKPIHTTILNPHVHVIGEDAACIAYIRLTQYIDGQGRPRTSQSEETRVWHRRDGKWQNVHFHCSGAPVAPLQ

**Q.** For COc1cc(Nc2nc(C)cc(-c3cnn4nc(OC)ccc34)n2)cc(C(F)(F)F)c1, which % of control [1] is on record?
**A.** 92%

**Q.** With COCC(=O)NC/C=C/c1ccc2ncnc(Nc3ccc(Oc4ccc(C)nc4)c(C)c3)c2c1 [CP-724714] as the compound, how does the % of control [2] read?
**A.** 83%

**Q.** COc1cc(N(C)c2ccnc3ccc(C(F)(F)F)cc23)cc(OC)c1OC was tested. Which % binding [3] did it give?
**A.** 63%

**Q.** Which results are given for CCC(=O)N1CCN(c2ccc(-n3c(=O)ccc4cnc5ccc(-c6cnc7ccccc7c6)cc5c43)cc2C(F)(F)F)CC1?
**A.** % of control [4]: 90%; % of control [5]: 79%

**Q.** O=C(NOC[C@H](O)CO)c1ccc(F)c(F)c1Nc1ccc(I)cc1F was tested. Which % of control [6] did it give?
**A.** 86%

**Q.** And the % of control [7]?
**A.** 100%

**Q.** And the % of control [8]?
**A.** 100%

**Q.** What about the % of control [9] of the same compound?
**A.** 100%
